The text below walks through data of ChEMBL document CHEMBL1201862, “PubChem BioAssay data set” (2004).

Experiment [1] in a line: A Cell Based Secondary Assay To Explore Cytotoxicity of Compounds that Sensitize Mycobacterium Tuberculosis to Beta-Lactam Antibiotics. Type of experiment: functional.
Experiment [2] can be described thus: cytotoxicity in HEK-293T cells, dose response, cytotoxicity control for TCR NF-kB inhibitor project, luminescence, T-cell screen hits (AID 489026).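 Further: cells exposed to compound about 14 hours before the viability readout.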 Type of experiment: functional, cell-based.
A short description of experiment [3]: A cytotoxicity screen of small molecule inhibitors of the PhoP region in Salmonella typhi identified in the primary screen. [Related pubchem assays: 1850, 1864, 1985 ]. Type of experiment: functional.
The target in experiment [4] is T1, Heat shock factor protein 1 (Mus musculus, UniProt P38532).
T1 sequence (P38532 whole entry): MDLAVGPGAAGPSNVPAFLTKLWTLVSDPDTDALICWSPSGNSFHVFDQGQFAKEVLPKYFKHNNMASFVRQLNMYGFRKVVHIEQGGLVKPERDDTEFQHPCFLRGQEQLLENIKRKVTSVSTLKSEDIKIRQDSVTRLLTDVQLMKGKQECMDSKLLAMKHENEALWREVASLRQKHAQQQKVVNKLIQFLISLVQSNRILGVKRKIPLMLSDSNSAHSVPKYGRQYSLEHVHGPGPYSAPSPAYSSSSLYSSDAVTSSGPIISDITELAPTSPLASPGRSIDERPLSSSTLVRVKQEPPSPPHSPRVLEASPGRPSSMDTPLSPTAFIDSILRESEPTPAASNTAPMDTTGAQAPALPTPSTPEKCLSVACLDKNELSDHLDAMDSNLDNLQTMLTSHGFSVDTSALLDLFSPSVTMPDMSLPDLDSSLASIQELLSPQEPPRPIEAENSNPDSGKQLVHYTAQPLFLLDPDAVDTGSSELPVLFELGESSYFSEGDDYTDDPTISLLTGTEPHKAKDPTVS
The experiment is described as follows: inhibition of MG132-induced HSE-luciferase signal, confirmation, cell-based, NIH3T3, luminescence, dose retest (AID 2382).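 Further: NIH3T3 fibroblasts with HSF1-driven luciferase reporter stressed by proteasome inhibitor MG132; luminescence from HSF1-driven luciferase expression after 8 hours of MG132 stress.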 Format: functional.

Active and inactive are the calls of the source.

In general, CC50 refers to the concentration that lowers cell viability or growth by half. For the compound `CCOc1cccc(/C=N/Nc2nc(N3CCCC3)nc(N3CCCC3)n2)c1O`, in experiment [1], the CC50 was > 40 µM (active).
The IC50 is the concentration that inhibits the measured activity by half. Regarding `COc1ccc(CNS(=O)(=O)c2cc(-c3cc(C)no3)ccc2C(C)C)cc1`, the IC50 in experiment [2] was > 80 µM (inactive).
Usually EC50 stands for the concentration that produces a half-maximal response. `Cc1ccc(CN2C3=NCCN3c3ccccc32)cc1`: the EC50 in experiment [3] was > 50 µM (active).
`O=C(Oc1c(-c2ccccc2Cl)oc2ccccc2c1=O)c1ccc(Cl)cc1`: the CC50 in experiment [1] is > 40 µM (active). Further, the EC50 in experiment [4] is > 195 µM (not active).
As for `CCOc1cc(C(c2c(C)n[nH]c2O)c2c(C)n[nH]c2O)cc([N+](=O)[O-])c1O`, in experiment [3], the EC50 is > 50 µM (active).
With `COc1ccc2nc(SCC(=O)N3CCCCCC3)c(C#N)cc2c1`, the CC50 in experiment [1] is > 40 µM (active).
Consider `O=C(/C=C/c1cccnc1)c1ccc(O)cc1`, for which, in experiment [1], the CC50 was 17.5 µM (active).
For `O=C(NCC(c1ccco1)N1CCc2ccccc21)c1ccc([N+](=O)[O-])cc1` (stereo unspecified), the CC50 in experiment [1] is > 40 µM (active).
Same read-out and setting: the result for `Cc1ccc(Cn2c(C(C)Nc3nc(-c4ccc(Cl)cc4)cs3)nc3cc(C(=O)NCCCO)ccc32)cc1` (stereo unspecified) reads > 40 µM (active).
Consider `O=C(O)Cn1c(=O)c2c3c(sc2n(Cc2ccccc2F)c1=O)CCCC3`, for which, in experiment [3], the EC50 is > 50 µM (active).
